Earlier results in patent US12274791B2, “Multiple unit dosage form having a therapeutic agent in combination with a nutritional supplement” (Bonafide Health, LLC, priority 2007, dated 2025).
Read-outs that look alike come from different tables or passages of the source.

Molecule	toxic effects (rats, levels several thousand times the upper limit of the ESADDI for chromium for humans (based on body weight))	toxic effects (rat, in vivo)
[Cl][Cr]([Cl])[Cl] [chromium chloride]	without toxic effects	–
Chromium picolinate	–	without toxic effects
